Positions of bridges follow the written chain, without caps; N, C: chain ends. No end group written: not given here.
System: M. smegmatis 607
Assay: Anti-mycobacterial activity by paper disk method
Format: cell-based, Mycobacterium smegmatis
Details: for Inhibition zone: paper disk (6 mm) containing 1 μg peptide on Middlebrook 7H9 agar spread with M. smegmatis 607 (approx. 1.5 × 10^8 CFU/ml), 37 °C, 48 hr, diameter of inhibitory zone, average from two independent experiments, '-' = no zone (activity lost); for Anti-mycobacterial activity compared with lariatin A (in words): M. smegmatis, paper disk method, 1 μg per disk
Protocol: To gain insights into the structure-activity relationships of lariatin A, anti-mycobacterial activity of 20 lariatin variants against M. smegmatis was evaluated by paper disk method (Fig. 4). Among lariatin variants related to the macrolactam ring, the anti-mycobacterial activity of Tyr6 variant only was lost, while the replacement of Tyr6 with tryptophan and phenylalanine didn’t affect the anti-mycobacterial activity. […] Furthermore, Gly11 and Asn14 were closely involved in the anti-mycobacterial activity because of the loss of the activity in their variants. […] Thus, it was shown that the positively charged amino acid residue was favorable at the residue at position 17. Also, it was shown that the amino acid residue without bulky or branched side chains at the residues at positions 15, 16 and 18 contributed to the higher potency.
Figure 4 Anti-mycobacterial activity of lariatin variants. Anti-mycobacterial activities of lariatin variants were evaluated by a paper disk method. Value of the inhibition zone against M. smegmatis and relative activity in comparison with lariatin A were shown here. Bar color represents potency of each compound when the value of inhibition zone of lariatin A is set up at 100%: yellow, <50% activity; green, 50–120% activity; blue, >120% activity. Value of inhibition zone represents the average from two independent experiments. TEXT PRINTED IN THE PICTURE: Lariatin A: Inhibition zone (mm): 21.8 | S2A: Inhibition zone (mm): 20.4 | Q3A: Inhibition zone (mm): 16.3 | L4A: Inhibition zone (mm): 8.9 | V5A: Inhibition zone (mm): 11.3 | Y6A: Inhibition zone (mm): - | V10A: Inhibition zone (mm): 7.6 | G11A: Inhibition zone (mm): - | H12A: Inhibition zone (mm): 12.7 | S13A: Inhibition zone (mm): 19.8 | N14A: Inhibition zone (mm): - | V15A: Inhibition zone (mm): 20.7 | I16A: Inhibition zone (mm): 24.0 | K17A: Inhibition zone (mm): 10.4 | P18A: Inhibition zone (mm): 29.6 | V15A/I16A: Inhibition zone (mm): 29.3 | Y6F: Inhibition zone (mm): 30.7 | Y6W: Inhibition zone (mm): 22.8 | R7K: Inhibition zone (mm): 26.5 | W9Y: Inhibition zone (mm): 14.9 | K17R: Inhibition zone (mm): 31.1
Antimicrobial activity of lariatins against M. smegmatis 607 was measured by a paper disk method. The cell suspension of M. smegmatis 607 was adjusted to approximately 1.5 × 10^8 CFU ml^−1 in a Middlebrook 7H9 broth (Difco, Becton Dickinson, Sparks, MD, USA) containing 0.05% Tween 80 and 10% ADC enrichment (5.0% bovine albumin fraction V, 2.0% dextrose and catalase (30 μg/ml)), and were spread on a Middlebrook 7H9 agar plate. A paper disk (6 ϕ mm, Advantec Toyo Kaisha, Ltd. Tokyo, Japan) containing 1 μg lariatin variants was placed on the agar plate and was incubated at 37 °C for 48 hr. A diameter (mm) of the inhibitory zone observed around the paper disk was measured to evaluate the anti-mycobacterial activity.

Row | Substance | Inhibition zone | Anti-mycobacterial activity compared with lariatin A (in words)
1 | H12A: lariatin A variant, alanine substitution at position 12 (GSQLVYREWVGASNVIKP; lactam N-8 (inferred); not fully specified; ends not checked; UniProt H7C8I3 27-44, looked up, variant H12A) | 12.7 mm | 
2 | K17A: lariatin A variant, alanine substitution at position 17 (GSQLVYREWVGHSNVIAP; lactam N-8 (inferred); not fully specified; ends not checked; UniProt H7C8I3 27-44, looked up, variant K17A) | 10.4 mm | weaker activity
3 | Lariatin A (GSQLVYREWVGHSNVIKP; lactam N-8 (inferred); ends not checked; UniProt H7C8I3 27-44, looked up) [18-residue lasso peptide from Rhodococcus jostii K01-B0171, macrolactam ring between Gly1 and Glu8, C-terminal tail threaded through ring] | 21.8 mm | 
4 | P18A: lariatin A variant, alanine substitution at position 18 (GSQLVYREWVGHSNVIKA; lactam N-8 (inferred); not fully specified; ends not checked; UniProt H7C8I3 27-44, looked up, variant P18A) | 29.6 mm | more potent activity than lariatin A
5 | S13A: lariatin A variant, alanine substitution at position 13 (GSQLVYREWVGHANVIKP; lactam N-8 (inferred); not fully specified; ends not checked; UniProt H7C8I3 27-44, looked up, variant S13A) | 19.8 mm | 
6 | V15A: lariatin A variant, alanine substitution at position 15 (GSQLVYREWVGHSNAIKP; lactam N-8 (inferred); not fully specified; ends not checked; UniProt H7C8I3 27-44, looked up, variant V15A) | 20.7 mm | 
7 | Y6F: lariatin A variant, Tyr6 replaced with phenylalanine (GSQLVFREWVGHSNVIKP; lactam N-8 (inferred); ends not checked; UniProt H7C8I3 27-44, looked up, variant Y6F) | 30.7 mm | 
